Target: T1, Leukotriene A-4 hydrolase (Homo sapiens, UniProt P09960)
T1 sequence (P09960 whole entry): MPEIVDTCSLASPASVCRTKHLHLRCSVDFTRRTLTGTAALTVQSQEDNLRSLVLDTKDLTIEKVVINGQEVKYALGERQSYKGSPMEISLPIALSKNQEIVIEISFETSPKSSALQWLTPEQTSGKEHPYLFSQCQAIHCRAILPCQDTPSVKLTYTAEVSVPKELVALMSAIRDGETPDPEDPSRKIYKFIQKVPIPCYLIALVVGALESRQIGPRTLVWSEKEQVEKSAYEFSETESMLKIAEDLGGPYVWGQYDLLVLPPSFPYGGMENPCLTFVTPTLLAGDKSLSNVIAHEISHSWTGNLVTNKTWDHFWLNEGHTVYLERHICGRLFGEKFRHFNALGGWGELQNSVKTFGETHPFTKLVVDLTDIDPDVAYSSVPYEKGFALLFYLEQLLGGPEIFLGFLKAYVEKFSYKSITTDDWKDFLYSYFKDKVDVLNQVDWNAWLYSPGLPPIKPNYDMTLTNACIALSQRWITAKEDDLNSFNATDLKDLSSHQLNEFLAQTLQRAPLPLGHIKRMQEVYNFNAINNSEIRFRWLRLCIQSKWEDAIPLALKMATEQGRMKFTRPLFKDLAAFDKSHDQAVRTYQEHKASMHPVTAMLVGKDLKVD
Assay: Inhibition of recombinant human LTA4H Epoxide Hydrolase expressed in Escherichia coli BL21 (DE3) pLysS preincubated for 10 mins followed by addition of LTA4 as substrate measured after 15 mins by reverse-phase HPLC analysis

IC50: > 10 µM
SMILES: CN(C)Cc1cccc(S(=O)(=O)n2ccc(/C=C/C(=O)NO)c2)c1

— BindingDB's records for doi:10.1021/acs.jmedchem.6b01507 (East China University of Science and Technology, 2017)
